The values below come from patent publication US6407116B1, “Nitrogenous fused-ring compounds, process for the preparation of the same, and drugs” (Takeda Chemical Industries, Inc., priority 1997, dated 2002).

Counter-ions that a name gives are not always drawn.

In series [1] the test system is guinea-pig eosinophils. The series is described as follows: Chemotaxis inhibition assay: LTB4-induced chemotaxis in guinea-pig eosinophils. The class given is cell-based. Particulars: test substance 1×10^−5 M, LTB4 10^−8 M, 2 hours; for inhibition at 10 µM: Cavia porcellus, Eosinophil. On the procedure:
1) Guinea-pig Eosinophil Preparation
Male Hartley guinea-pigs received 2 ml of equine serum (Bio-Whittaker, Inc) intraperitoneally once a week for successive 8 weeks. 48 hours after the last administration, 75 ml of physiological saline was injected into the peritoneal cavity, and the fluid was recovered and centrifuged at 400 G for 5 minutes. […] Erythrocytes in the isolated cell pellet, if any, were removed by hypotonic treatment (suspended in water for 30 seconds).
2) Chemotaxis Inhibition Assay
600 μl of LTB4 suspended in Hanks-Hepes-HSA (final concentration of 10^−8 M, Cascade Biochemical Ltd.) was placed in the lower compartment of a 24-well plate and kept at 37° C. for 30 minutes in a CO2 gas incubator. After mounting a Chemotaxicell (polycarbonate membrane, pore size 3 μm, thickness 10 μm), which served as an upper compartment, on the 24-well plate described above, 200 μl of eosinophil suspension (5×10^6 cells/ml), which had been incubated at 37° C. for 15 minutes in a thermostat chamber, was added to the upper compartment. After allowing to react for 2 hours in the CO2 gas incubator, the Chemotaxicell was removed, and 60 μl of 2% (w/v) EDTA solution in physiological saline was added to the lower compartment. After cooling on ice, the cells which underwent the chemotaxis into the lower compartment were counted using a blood cell counter (Coulter Counter (trade name)). In the procedure described above, the test substance was dissolved in N,N-dimethylformamide (DMF) and added to the upper and lower compartments at the final concentration of 10^−5 M.
% Chemotaxis inhibition=[…] [Equation 2]
The results are shown in [Table 2].

Series [2] has as its system histamine-induced dermal vascular hyperpermeability. The series is described as follows: Effect on histamine-induced dermal vascular hyperpermeability in guinea pigs. It is filed as in vivo, guinea pig. Particulars: 3 mg/kg oral administration, 1 hour before intradermal histamine, male Hartley guinea pigs; for inhibition in vivo at 3 mg/kg: Cavia porcellus. The procedure: Effect on Histamine-induced Dermal Vascular Hyperpermeability in Guinea Pigs
Male Hartley guinea pigs (weighing about 500 g) were used. […] After 30 minutes, the animal was hit on its head to make it unconscious, and cut at its neck to sacrifice by exsanguination. The dorsal skin was peeled and examined for the long and short diameters (mm) of each blue spot which were then multiplied to give a product, which was averaged to give a vascular permeability index. Each substance was suspended in 5% gum arabic solution, and given orally in the volume of 0.2 ml/100 g body weight 1 hour before histamine administration. Control animals received the same volume of 5% gum arabic solution. A % inhibition of this reaction was calculated according to [Equation 1].
% Inhibition of histamine-induced dermal vascular hyperpermeability=100×(1-vascular permeability index in treatment group/vascular permeability index in control group) [Equation 1]

Take `CCOC(=O)C(C)(C)n1c(=O)c2cc(F)ccc2n(CCCCN2CCC(OC(c3ccccc3)c3ccccc3)CC2)c1=O` [Example 33, Ethyl 2-[1-[4-(4-diphenylmethoxypiperidino)butyl]-2,4-dioxo-6-fluoro-1,2,3,4-tetrahydroquinazolin-3-yl]isobutyrate hydrochloride]: in series [1], at 10 µM the inhibition was 54%. In series [2], this compound yielded an inhibition in vivo at 3 mg/kg of 88%.

Take `CCOC(=O)CCCCCn1c(=O)c2ccccc2n(CCCCN2CCC(OC(c3ccccc3)c3ccccc3)CC2)c1=O.Cl` [Example 95, Ethyl 2,4-dioxo-1-[4-(4-diphenylmethoxypiperidino)butyl]-1,2,3,4-tetrahydroquinazoline-3-hexanoate hydrochloride]: the melting point lay within 149 to 151 °C. Also, at 3 mg/kg the inhibition in vivo in series [2] was 85%.

For the compound `N#CCCCCn1c(=O)c2ccccc2n(CCCCN2CCC(OC(c3ccccc3)c3ccccc3)CC2)c1=O` [Example 93, 2,4-Dioxo-1-[4-(4-diphenylmethoxypiperidino)butyl]-1,2,3,4-tetrahydroquinazoline-3-valeronitrile], in series [1], the inhibition at 10 µM came out at 62%. Further, at 3 mg/kg the inhibition in vivo in series [2] was 84%.

`O=C(O)CCn1c(=O)c2ccccc2n(CCCCN2CCC(OC(c3ccccc3)c3ccccc3)CC2)c1=O` [Example 52, 2,4-Dioxo-1-[4-(4-diphenylmethoxypiperidino)butyl]-1,2,3,4-tetrahydroquinazoline-3-propionic acid] yielded a melting point of 107 to 108 °C. The same compound had an inhibition in vivo at 3 mg/kg in series [2] of 88%.

With `O=c1[nH]c(=O)n(CCCCN2CCC(OC(c3ccccc3)c3ccccc3)CC2)c2ccccc12` [Example 2, 2,4-Dioxo-1-[4-(4-diphenylmethoxy-1-piperidinyl)butyl]-1,2,3,4-tetrahydroquinazoline], the melting point lay in the range of 131 to 133 °C. The inhibition at 10 µM in series [1] worked out at 91%. Further, at 3 mg/kg the inhibition in vivo in series [2] was 88%.

`COC(=O)C(C)(C)n1c(=O)c2ccccc2n(CCCCN2CCC(OC(c3ccccc3)c3ccccc3)CC2)c1=O.Cl` [Example 30]: in series [1], the “Inhibition (%) of LTB4-induced chemotaxis” value worked out at 77%. Besides, the “Inhibition of histamine-induced dermal vascular hyperpermeability (%)” value in series [2] worked out at 88%.

Compound `O=c1[nH]c(=O)n(CCCCN2CCC(OC(c3ccccc3)c3ccccc3)CC2)c2ccc([N+](=O)[O-])cc12` [Example 12, 2,4-Dioxo-1-[4-(4-diphenylmethoxypiperidino)butyl]-6-nitro-1,2,3,4-tetrahydroquinazoline] yielded a melting point of 211 to 213 °C. Also, the inhibition at 10 µM in series [1] worked out at 66%. Moreover, at 3 mg/kg the inhibition in vivo in series [2] was 80%.

`O=C(O)CCCCn1c(=O)c2ccccc2n(CCCCN2CCC(OC(c3ccccc3)c3ccccc3)CC2)c1=O` [Example 60, 2,4-Dioxo-1-[4-(4-diphenylmethoxypiperidino)butyl]-1,2,3,4-tetrahydroquinazoline-3-valeric acid] had an inhibition at 10 µM in series [1] of 65%. The inhibition in vivo at 3 mg/kg in series [2] was found to be 93%.

On to `Nc1ccc2c(c1)c(=O)[nH]c(=O)n2CCCCN1CCC(OC(c2ccccc2)c2ccccc2)CC1` [Example 40, 6-Amino-2,4-dioxo-1-[4-(4-diphenylmethoxypiperidino)butyl]-1,2,3,4-tetrahydroquinazoline], for which the melting point was in the range of 131 to 133 °C. For the same compound, the inhibition in vivo at 3 mg/kg in series [2] stood at 90%.

As for `CCOC(=O)C(C)(C)n1c(=O)c2ccccc2n(CCCCN2CCC(OC(c3ccccc3)c3ccccc3)CC2)c1=O.Cl` [Example 27], the “Inhibition (%) of LTB4-induced chemotaxis” value in series [1] came to 52%. In addition, in series [2], the “Inhibition of histamine-induced dermal vascular hyperpermeability (%)” value is given as 94%.

`CC(C)(C(=O)O)n1c(=O)c2ccccc2n(CCCCN2CCC(OC(c3ccccc3)c3ccccc3)CC2)c1=O` [Example 120, 2-[2,4-Dioxo-1-[4-(4-diphenylmethoxypiperidino)butyl]-1,2,3,4-tetrahydroquinazolin-3-yl]isobutyric acid hydrochloride] displayed an inhibition in vivo at 3 mg/kg in series [2] of 86%.
